The target of assay [1] is T1, calcium channel (guinea-pig isolated ileal longitudinal smooth muscle) (Cavia porcellus, UniProt O35505).
T1 construct: The longitudinal smooth muscle is carefully separated from the underlying circular muscle layer; from tissue; host or cells: guinea-pig ileal longitudinal smooth muscle
The assay is described as follows: Calcium Channel Antagonist Activity in Guinea-Pig Isolated Ileal Smooth Muscle. The class given is cell-based. The source says:
Calcium Channel Antagonist Activity in Guinea-Pig Isolated Ileal Smooth Muscle.
Male albino guinea-pigs are sacrificed by stunning and exsanguination. The abdominal cavity is opened and the small intestine is removed, with about 10 cm of the terminal ileum being discarded. The tissue is placed in a dish containing Tyrode's solution (composition, mM: […]; KCl 2.68; NaHCO3 11.90; NaH2 PO4 0.36; MgCl2 0.98; CaCl2 1.77; dextrose 5.55), and cut into three to four segments. A glass rod (6 mm diameter) is carefully inserted into the lumen of each segment, and excess connective tissue or fat is removed. The longitudinal smooth muscle is carefully separated from the underlying circular muscle layer by gently stroking a moist cotton swab on a tangent to shallow, longitudinal incisions made parallel to the mesenteric attachment. Using gentle traction, and taking care to keep the segment moist at all times, the preparation is stripped from the remaining length of the ileal segment (Paton & Zar, J. Physiol. 194, 13; 1968).
Each preparation is suspended in a 10 mL jacketed glass tissue bath containing Tyrode's solution maintained at 37° C. and gassed with 5% CO2 in O2. The preparation is attached by silk thread to a force-displacement transducer. […] The initial resting tension is adjusted to 0.5 g and the preparation equilibrated for 55 minutes prior to experimentation. At the end of this period, the bathing solution is replaced with Ca^2+ -free Tyrode's solution. This solution is prepared by omitting CaCl2. The preparation is washed four times in Ca^2+ -free Tyrode 's to remove any Ca^2+ remaining in the bath, and allowed to equilibrate for a further 20 minutes.
Concentration-response curves to CaCl2 are obtained using the following procedure. Preparations are exposed to a depolarizing concentration of KCl (80 mM) for 6 minutes. At the end of this period CaCl2 is added to the bath cumulatively in the concentration range 0.2-8.0 mM. Successive additions of each Ca^2+ concentration are carried out only when the previous response has reached a plateau. When the maximum response has been attained the bath is again washed (five times) with Ca^2+ -free buffer, and the preparation re-equilibrated for approximately 15 minutes. A second Ca^2+ concentration-response curve is then obtained in the same manner. This second curve serves as control for that tissue.
Further curves are obtained in the presence of increasing concentrations of the test drugs. Where appropriate, the test drug is added to the bath immediately following addition of KCl, and 6 minutes later the concentration-response curve to Ca^2+ is obtained. Each test preparation is exposed to three different concentrations of a test drug.
For each ileal preparation, the control EC50 for Ca^2+ (the concentration producing 50% of the maximum response) is determined from the control concentration-response curve. Calcium blocking activity is defined as a Kb value (the concentration producing a two-fold dextral shift in the control curve), calculated from EC50 ratios in the absence and presence of test drugs.

The test system of assay [2] is substance P-induced Cl- ion secretion by guinea-pig isolated ileal mucosa. The class given is cell-based. Particulars: antagonist 5 μM serosal and mucosal, 5 minutes prior to substance P (1 μM).
Description: Inhibition of Ileal Secretion.
This technique involves the measurement of Cl- ion secretion by guinea-pig isolated ileal mucosa, and provides a method for assessing the effect of drugs on intestinal electrolyte and water secretion. […] Cl- ion secretion in vitro, which is Ca^2+ -dependent, is quantitated as changes in electrical current (Isc) under short-circuited conditions.
Male Hartley guinea-pigs weighing 200-400 g were maintained on a standard laboratory diet with free access to food and water prior to sacrifice by decapitation. An approximately 15 cm segment of proximal ileum was removed and stripped of its underlying longitudinal muscle by blunt dissection. Four adjacent tissues were each mounted as flat sheets between Ussing chambers (two lucite half-chambers, exposed area=0.64 cm^2) and bathed on both sides by a physiological salt solution circulated by gas lift, and maintained at a pH of 7.4.
Electrical measurements were monitored with an automatic voltage clamp (World Precision Instruments, model DVC-1000). Two calomel electrodes with 4% agar Krebs Bicarbonate Ringer bridges were used to measure the transepithelial potential difference (PD) across the isolated mucosa. […] The Isc was recorded on a Gould chart recorder. […]
Assay [3] relates to Serotonin-Induced Diarrhea in Mice. The assay is described as follows: Inhibition of Serotonin-Induced Diarrhea in Mice. The class given is in vivo, Male CF1 mice. Particulars: Mus musculus, ip, 0.5 h, read-out: ED50 (95% confidence limits). The method, then:
Inhibition of Serotonin-Induced Diarrhea in Mice.
. The mice were weighed and an average weight was used to calculate the amount of drug to be administered. Drugs were prepared in isotonic saline or an appropriate vehicle at varying concentrations and were administered intraperitoneally. Control animals were given vehicles without any test drug. Serotonin was given intraperitoneally (i.p.) in all cases 30 minutes after i.p. administration of test drug. Mice were placed in individual cages containing racks and paper liners with free access to water. Mice were observed after 30 minutes, 60 minutes and 180 minutes and graded for presence or absence of diarrhea. The grading system consisted of positive (+), negative (-) and (±) based on consistency and liquid staining. The ED50 (effective dose in 50% of population) was calculated for each test drug using the method of Litchfield-Wilcoxin. […]

Where [4] appears, read: Kb = concentration producing a two-fold dextral shift in the control CaCl2 concentration-response curve, KCl (80 mM) depolarized ileal smooth muscle, read-out: Calcium antagonist Kb.
[5] abbreviates: i.p., serotonin i.p. 30 minutes after test drug, mice, Litchfield-Wilcoxin.

Where a name gives a salt, the structure may show the parent alone. Read-outs that look alike come from different tables or passages of the source.

T1 sequence (O35505 whole entry): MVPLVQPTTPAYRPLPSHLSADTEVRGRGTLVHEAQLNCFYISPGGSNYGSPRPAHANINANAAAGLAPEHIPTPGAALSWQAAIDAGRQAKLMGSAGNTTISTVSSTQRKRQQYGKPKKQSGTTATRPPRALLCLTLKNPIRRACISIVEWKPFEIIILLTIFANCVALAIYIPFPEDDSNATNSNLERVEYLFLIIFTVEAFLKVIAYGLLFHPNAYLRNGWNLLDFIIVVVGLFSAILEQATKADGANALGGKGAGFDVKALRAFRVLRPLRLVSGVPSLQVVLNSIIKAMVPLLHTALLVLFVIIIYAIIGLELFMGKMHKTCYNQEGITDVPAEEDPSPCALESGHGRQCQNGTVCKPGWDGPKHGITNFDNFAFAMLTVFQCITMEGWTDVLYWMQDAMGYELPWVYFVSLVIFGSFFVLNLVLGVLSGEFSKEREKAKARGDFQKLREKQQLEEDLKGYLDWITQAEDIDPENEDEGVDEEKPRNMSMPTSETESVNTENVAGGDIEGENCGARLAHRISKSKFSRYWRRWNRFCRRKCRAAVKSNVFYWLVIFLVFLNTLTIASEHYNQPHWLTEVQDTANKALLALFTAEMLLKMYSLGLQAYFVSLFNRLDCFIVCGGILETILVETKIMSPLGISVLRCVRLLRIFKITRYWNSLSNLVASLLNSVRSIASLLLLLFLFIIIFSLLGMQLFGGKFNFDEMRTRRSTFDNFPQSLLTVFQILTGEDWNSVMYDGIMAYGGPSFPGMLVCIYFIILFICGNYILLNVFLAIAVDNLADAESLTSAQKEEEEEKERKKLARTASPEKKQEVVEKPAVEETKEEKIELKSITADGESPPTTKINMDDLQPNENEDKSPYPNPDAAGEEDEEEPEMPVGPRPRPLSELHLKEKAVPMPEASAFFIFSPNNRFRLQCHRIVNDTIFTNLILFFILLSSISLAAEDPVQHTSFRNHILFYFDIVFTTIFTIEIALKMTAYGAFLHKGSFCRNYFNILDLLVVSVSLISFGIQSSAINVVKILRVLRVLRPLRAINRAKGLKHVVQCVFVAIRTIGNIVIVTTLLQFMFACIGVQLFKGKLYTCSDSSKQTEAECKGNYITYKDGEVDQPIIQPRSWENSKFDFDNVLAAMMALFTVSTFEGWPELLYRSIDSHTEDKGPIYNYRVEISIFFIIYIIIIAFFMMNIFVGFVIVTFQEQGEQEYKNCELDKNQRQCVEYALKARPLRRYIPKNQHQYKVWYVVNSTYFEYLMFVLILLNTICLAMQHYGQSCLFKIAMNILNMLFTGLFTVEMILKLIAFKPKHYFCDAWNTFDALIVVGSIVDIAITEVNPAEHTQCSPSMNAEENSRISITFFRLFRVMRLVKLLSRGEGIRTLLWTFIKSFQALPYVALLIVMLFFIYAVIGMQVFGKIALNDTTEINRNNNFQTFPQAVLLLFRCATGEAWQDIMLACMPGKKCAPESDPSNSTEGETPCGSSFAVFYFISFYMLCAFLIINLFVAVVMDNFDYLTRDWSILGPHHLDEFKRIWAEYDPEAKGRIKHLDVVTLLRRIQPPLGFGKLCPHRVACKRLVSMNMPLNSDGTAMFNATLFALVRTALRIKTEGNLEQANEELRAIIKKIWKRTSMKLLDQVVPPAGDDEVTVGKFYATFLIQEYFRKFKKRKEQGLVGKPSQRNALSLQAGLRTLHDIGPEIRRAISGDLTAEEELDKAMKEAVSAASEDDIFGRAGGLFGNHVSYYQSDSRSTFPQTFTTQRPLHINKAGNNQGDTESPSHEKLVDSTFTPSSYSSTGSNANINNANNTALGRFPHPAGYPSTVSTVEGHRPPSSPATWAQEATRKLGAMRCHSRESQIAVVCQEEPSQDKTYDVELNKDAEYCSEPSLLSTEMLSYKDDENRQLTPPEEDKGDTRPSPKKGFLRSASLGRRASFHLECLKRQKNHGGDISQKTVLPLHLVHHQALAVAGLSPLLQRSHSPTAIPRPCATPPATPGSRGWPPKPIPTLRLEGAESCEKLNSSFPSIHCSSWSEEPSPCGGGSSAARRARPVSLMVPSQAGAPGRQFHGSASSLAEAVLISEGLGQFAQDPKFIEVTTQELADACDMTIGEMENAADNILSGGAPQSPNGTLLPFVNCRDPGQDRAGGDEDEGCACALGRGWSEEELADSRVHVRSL

Turning to `CCN(CC)CC#CCCC1(C2(O)c3ccccc3Oc3ccccc32)SCCCS1` [2-(5-Diethylaminopent-3-ynyl)-2-(9-hydroxy-9H-xanthen-9-yl)-1,3-dithiane], in assay [1], the Kb came to 0.156 ± 0.03 µM. For the same compound, the “percent inhibition of substance P-induced increase in Isc” value in assay [2] amounted to 55.2%. The median effective dose (ED50) in assay [3] turned out to be 20.7 mg/kg.

Consider `CCN(CC)CC#CCCC(O)(c1ccccc1)C1SCCCS1` (stereo not drawn) [2-(6-diethylamino-1-hydroxy-1-phenylhex-4-ynyl)-1,3-dithiane oxalate], for which the Kb in assay [1] (setting [4]) was 6.71 ± 1.45 µM.

In the case of `COc1ccc(CCN(C)CC#CCC2(c3ccccc3)SCCCS2)cc1OC` [2-[4-[2-(3,4-dimethoxyphenyl)ethyl]methylaminobut-2-ynyl]-2-phenyl-1,3-dithiane oxalate], the Kb in assay [1] (setting [4]) was 1.17 ± 0.35 µM.

With `CN(CC#CCCC1SCCCS1)Cc1cccc2ccccc12` [2-[5-(1-Naphthylmethyl)methylaminopent-3-ynyl]-1,3-dithiane Oxalate], the Kb in assay [1] (setting [4]) is more than 10 µM.

`CN(CC#CCCC1SCCCS1)Cc1ccc2ccccc2c1` [2-[5-(2-Naphthylmethyl)methylaminopent-3-ynyl]-1,3-dithiane Oxalate]: in assay [1] (setting [4]), the Kb came out at 8.33 ± 2.04 µM.

`CN(CC#CCCC1SCCCS1)CCc1ccccc1` [2-[5-(2-Phenylethyl)methylaminopent-3-ynyl]-1,3-dithiane Oxalate]: in assay [1] (setting [4]), the Kb was 2.27 ± 0.73 µM.

Turning to `CN(CC#CCCC1(C(O)(c2ccccc2)C2CCCCC2)SCCCS1)CCc1ccccc1` (stereo not drawn) [2-[5-(2-Phenylethyl)methylaminopent-3-ynyl]-2-(α-cyclohexyl-α-hydroxybenzyl)-1,3-dithiane Oxalate], the Kb in assay [1] (setting [4]) is 3.75 ± 1.25 µM.

Consider `CN(CC#CCCC1(C(O)(c2ccccc2)c2ccccc2)SCCCS1)CCc1ccccc1` [2-[5-(2-Phenylethyl)methylaminopent-3-ynyl]-2-(α-hydroxy-α-phenylbenzyl)-1,3-dithiane Oxalate Hemihydrate], for which the Kb in assay [1] (setting [4]) was 2.65 ± 1.21 µM.

`CN(CC#CCCC1(c2ccccc2)SCCCS1)CCc1ccccc1` [2-[5-(2-Phenylethyl)methylaminopent-3-ynyl]-2-phenyl-1,3-dithiane Oxalate]: the Kb in assay [1] (setting [4]) is 1.74 ± 1.08 µM.

As for `CN(CC#CCCC1SCCCS1)CCCc1ccccc1` [2-[5-(3-Phenylpropyl)methylaminopent-3-ynyl]-1,3-dithiane Oxalate], the Kb in assay [1] (setting [4]) turned out to be 2.98 ± 0.59 µM.

Regarding `CN(CC#CCCC1(C(O)(c2ccccc2)c2ccccc2)SCCCS1)CCCc1ccccc1` [2-[5-(3-Phenylpropyl)methylaminopent-3-ynyl]-2-(9-hydroxy-9-phenylbenzyl)-1,3-dithiane Oxalate], the Kb in assay [1] (setting [4]) came to 1.63 ± 0.88 µM.

On to `CN(CC#CCCC1(C2(O)c3ccccc3Sc3ccccc32)SCCCS1)CCCc1ccccc1` [2-[5-(3-Phenylpropyl)methylaminopent-3-ynyl]-2-(9-hydroxy-9H-thioxanthen-9-yl)-1,3-dithiane], for which, in assay [1] (setting [4]), the Kb was 4.16 ± 0.86 µM.

On to `CN(CC#CCCC1(C2(O)c3ccccc3Oc3ccccc32)SCCCS1)CCCc1ccccc1` [2-[5-(3-Phenylpropyl)methylaminopent-3-ynyl]-2-(9-hydroxy-9H-xanthen-9-yl)-1,3-dithiane], for which the Kb in assay [1] (setting [4]) amounted to 3.09 ± 0.99 µM.

In the case of `CN(CC#CCCC1(C2(O)c3ccccc3Sc3ccc(Cl)cc32)SCCCS1)CCCc1ccccc1` (stereo not drawn) [2-[5-(3Phenylpropyl)methylaminopent-3-ynyl)-2-(2-chloro-9-hydroxy-9H-thioxanthen-9-yl)-1,3-dithiane Hemioxalate], the Kb in assay [1] (setting [4]) was more than 7 µM.

As to `CN1CCN(CC#CCCC2SCCCS2)CC1` [2-[5-(4-Methylpiperazinyl)pent-3-ynyl]-1,3-dithiane Dioxalate], the Kb in assay [1] (setting [4]) is more than 10 µM.

As to `CN1CCN(CC#CCCC2(C3(O)c4ccccc4Oc4ccccc43)SCCCS2)CC1` [2-[5-(4-Methylpiperazinyl)pent-3-ynyl]-2-(9-hydroxy-9H-xanthen-9-yl)-1,3-dithiane Dioxalate], the Kb in assay [1] (setting [4]) turned out to be 0.488 ± 0.03 µM.

On to `CN(CC#CCCC1SCCCS1)CCCCc1ccccc1` [2-[5-(4-Phenylbutyl)methylaminopent-3-ynyl]-1,3-dithiane Oxalate], for which the Kb in assay [1] (setting [4]) was found to be 3.43 ± 0.83 µM.

In the case of `CN(CC#CCCC1SCCCS1)Cc1ccccc1` [2-[5-(Benzylmethylaminopent-3-ynyl]-1,3-dithiane Oxalate], in assay [1] (setting [4]), the Kb was determined as 8.02 ± 2.74 µM.

As for `CN(CC#CCCC1(C(O)(c2ccccc2)c2ccccc2)SCCCS1)Cc1ccccc1` [2-[5-(Benzylmethylaminopent-3-ynyl]-2-(α-hydroxy-α-phenylbenzyl)-1,3-dithiane Oxalate Hemihydrate], the Kb in assay [1] (setting [4]) stood at 3.17 ± 0.76 µM.

For `COc1ccc(CCN(C)CC#CCCC2SCCCS2)cc1OC` [2-[5-[2-(3,4-Dimethoxyphenyl)ethyl]methylaminopent-3-ynyl]-1,3-dithiane Oxalate], the Kb in assay [1] (setting [4]) is 2.22 ± 0.07 µM.

Turning to `OCCN1CCN(CC#CCCC2SCCCS2)CC1` [2-[5-[4-(2-Hydroxyethyl)piperazinyl]pent-3-ynyl]-1,3-dithiane Dioxalate], the Kb in assay [1] (setting [4]) is more than 10 µM.

As for `CN(CC#CCCCC1SCCCS1)CCc1ccccc1` [2-[6-(2-Phenylethyl)methylaminohex-4-ynyl]-1,3-dithiane Oxalate], the Kb in assay [1] (setting [4]) turned out to be 4.18 ± 1.54 µM.

In the case of `CN(CC#CCCC(O)(c1ccccc1)C1SCCCS1)CCc1ccccc1` (stereo not drawn) [2-[6-(2-phenylethyl)methylamino-1-hydroxy-1-phenyl-hex-4-ynyl]-1,3-dithiane oxalate hemihydrate], the Kb in assay [1] (setting [4]) was 2.25 ± 0.53 µM.

For `COc1ccc(CCN(C)CC#CCCC(O[Si](C)(C)C)(c2ccccc2)C2SCCCS2)cc1OC` (stereo not drawn) [2-[6-[2-(3,4-Dimethoxyphenyl)ethyl]methylamino-1-phenyl-1-trimethylsilyloxyhex-4-ynyl]-1,3-dithiane], the Kb in assay [1] (setting [4]) came to 0.57 ± 0.03 µM.

Consider `COc1ccc(CCN(C)CC#CCCC(O)(c2ccccc2)C2SCCCS2)cc1OC` (stereo not drawn) [2[6-[2-(3,4-dimethoxyphenyl)ethyl]methylamino-1-hydroxy-1-phenylhex-4-ynyl]-1,3-dithiane], for which, in assay [1] (setting [4]), the Kb was determined as 1.23 ± 0.53 µM.

Consider `CN(C)C(=O)C(CCN1CCC(O)(c2ccc(Cl)cc2)CC1)(c1ccccc1)c1ccccc1` [loperamide, reference compound], for which the “percent inhibition of substance P-induced increase in Isc” value in assay [2] amounted to 36.1%. In assay [3] (setting [5]), the median effective dose (ED50) amounted to 0.16 mg/kg.

For the compound `COc1ccc(CCN(C)CCCC(C#N)(c2ccc(OC)c(OC)c2)C(C)C)cc1OC` (stereo not drawn) [verapamil], in assay [3] (setting [5]), the ED50 worked out at 13.3 mg/kg.
